The values that follow come from patent US6638938B1, “Method for preventing tissue injury from hypoxia” (Cell Therapeutics, Inc., priority 1993, dated 2003).

One test has as its system isolated rat kidneys. In words: ischemic isolated rat kidney reperfused with human neutrophils. The conditions noted are these: Ischemia + neutrophils + Lisofylline. An excerpt:
This example illustrates an in vivo kidney model of hypoxic tissue injury using Lisofylline. Isolated rat kidneys were rendered ischemic and reperfused with human neutrophils (prepared as in example 4 above) according to the procedure in Linas et al;, Am. J. Physiol. 24:728-735, 1988. Lisofylline decreased injury in this ischemic isolated rat kidney model according to the data presented in Table 8 below wherein GFR refers to glomerular filtration rate and TNa refers to tubular sodium reabsorption.

Test [1] concerns human neutrophils (PA, lyso-PA). In words: PA and lyso-PA mass in human neutrophils after hypoxia/reoxygenation. In kind it is cell-based. The protocol: This example provides evidence from a group of experiments of the nexus and relationship between inhibiting linoleate-enriched PA species and reversal of hypoxic/reoxygenation tissue injury with Lisofylline. Lisofylline treated human neutrophils were exposed to hypoxia and then reoxygenation in vitro. Human neutrophils (PMN) were prepared from heparinized blood obtained from consenting, healthy human volunteers, isolated and highly purified (>99%)-by percoll gradient anddifferential centrifugation and resuspended in HBSS (Hanks balanced salt solution). Human neutrophils were placed in hypoxia (95% N2+5% CO2) for 60 min and then reoxygenated (21% O2+5% CO2) for 20 min.
Following hypoxia/reoxygenation, human neutrophils had increased PA concentrations with a retention time (Rf) characteristic of linoleate-enriched PA species. The analysis was done by fixing the neutrophils in ice-cold methanol, extracting the lipids and then separating them by HPLC using a Waters μ-Porosil silica column and an anisocratic gradient (Bursten et al., J. Biol. Chem. 266:20732, 1991). Lipids in the column effluent were monitored at 206-224nm. HPLC fractions were also analyzed by thin layer chromatography (TLC), amine content, acyl content and mass spectroscopy to confirm peak identities. Fast-atom bombardrment (FAB) mass spectroscopy spectra were acquired using a VG 70 SEQ tandem hybrid instrument of EBqQ geometry (VG Analytical, Altricham UK) as described in Bursten et al. The mass of total PA varied from 0.65-0.75% in unstimulated neutrophils to 2.7-3.6% of total detectable lipids in stimulated neutrophils (i.e., increased by 3.5-5 fold), whereas lyso-PA mass in neutrophils pretreated with Lisofylline and subject to hypoxia/reoxygenation stimulation could range as high as 7-8% of total detectable lipids. Hypoxia/reoxygenated neutrophils preincubated with 10 μM to 100 μM Lisofylline had decreased PA and increased lyso-PA total mass compared to untreated but stimulated neutrophils.

The next test has as its system isolated rat lungs. In words: human neutrophil perfused isolated rat lungs given IL-8 intratracheally. The protocol: After Sprague-Dawley adult male rats (350±50 g) were anesthetized with pentobarbital (60 mg/kg i.p.), a tracheotomy cannula was placed and secured with 2-O ligature. Lungs were ventilated with a tidal volume of 3 cc at a rate of 60/min. with a gas mixture containing 5% CO2 21% O2 and 74% N2. Following midline thoracotomy, a 4-O ligature was loosely placed around the root of the pulmonary outflow tract. Heparin (200 units) was injected into the right ventricle and allowed to recirculate. A rigid cannula was placed into the right ventricle, threaded into the pulmonary outflow tract, and secured with the ligature. The left ventricle was incised and a drainage cannula was inserted and secured with a 2-O ligature. Lungs and heart were excised, placed in an isolated lung chamber, and ventilated with 2.5 cm of positive end-expiratory pressure. Lungs were perfused free of blood using Earle's Balanced Salt Solution (Sigma) containing calcium chloride (0.265 g/L), magnesium sulfate (0.09767 g/L), potassium chloride (0.4 g/L), sodium chloride (6.8 g/L), sodium phosphate monobasic (0. 122 g/L) and D-glucose (1 g/L) to which was added sodium bicarbonate (2.2 g/L.) and Ficoll-70 (Sigma)(40 g/L), and the final pH adjusted to 7.40. […] Pulmonary artery pressures were continuously monitored with a transducer and weight increases were monitored with a force transducer. […]

Test [2] deals with LPAAT (lysophosphatidic acyltransferase). In words: inhibition of LPAAT activity. In kind it is biochemical. Conditions: LPAAT activated by IL-1.
The subject of a further test is neutrophils in BAL. In words: percentage of neutrophils among BAL samples. In kind it is in vivo, Balb/C mice. Conditions: hemorrhage/resuscitated mice treated; 11±2% in untreated; p<0.05. The method, then:
This example illustrates a study of Lisofylline in a murine hemorrhage and resuscitation model. Male Balb/C mice, 8-12 weeks of age, were obtained from Harlan-Sprague Dawley (Indianapolis, Ind.). The animals were kept on a 12 hour light/dark cycle with free access to food and water. With this model, 30% of the calculated blood volume (approximately 0.55 ml for a 20 gram mouse) was withdrawn from a methoxyflurane anesthetized mouse by cardiac puncture over a 60-second period. The blood was collected into a heparinized syringe (5 units heparin), kept at 37° C. for one hour, then reinfused into the mouse through a retroorbital plexus injection. Using this method, one is able to resuscitate all hemorrhaged mice without complication. […]
Three days following hemorrhage and resuscitation or the initiation of treatment with Lisofylline therapy in normal treated animals, mice were anesthetized with methoxyflurane and sacrificed by exsanguination through cardiac puncture into a heparinized (5 U) syringe. […] As determined by cytology, there was less than 3% contamination of alveolar macrophages with lymphocytes, neutrophils, or other mononuclear cell populations when BAL specimens are collected in normal Balb/C mice, but approximately 11±2% of isolated cells are neutrophils in mice subjected 3 days previously to 30% blood volume hemorrhage with resuscitation one hour later. […]

[3] abbreviates: hypoxia/reoxygenated neutrophils preincubated with 10 μM to 100 μM, versus untreated but stimulated.

As for `C[C@@H](O)CCCCn1c(=O)c2c(ncn2C)n(C)c1=O` [Lisofylline, 1-R-(5-hydroxyhexyl)-3,7-dimethylxanthine], the “TNa (tubular sodium reabsorption)” value in the test with isolated rat kidneys (control 90%, ischemia + neutrophils 40%) is 78% (n = 6). Further, the “GFR (glomerular filtration rate)” value with isolated rat kidneys (control 250, ischemia + neutrophils 113) is on record as 202 (n = 6). For the same compound, in test [1] (setting [3]), the PA total mass result is “decreased” and the lyso-PA total mass result is reported as “increased”. Also, the lyso-PA mass in test [1] (neutrophils pretreated with Lisofylline, hypoxia/reoxygenation stimulation, could range as high as) is 7-8 % of total detectable lipids. Moreover, the “Lung Weight Gain” value in the test on isolated rat lungs (Neutrophils + IL-8 + Lisofylline 1 μM) was 0.0 ± 0.0 (3)δ g. Besides, the “Lung Weight Gain” value with isolated rat lungs (Neutrophils + IL-8 + Lisofylline 50 μM) is on record as 0.0 ± 0.0 (4)δ g. For the same compound, in test [2], the “mode of LPAAT inhibition” value was “direct inactivator and competitive inhibitor”. Further, the “percentage of neutrophils among BAL samples” value in the test with neutrophils in BAL was found to be 6±2%.
